According to US11414431B2, “Substituted pyrazolo[1,5-a]pyrimidines as TYK2 inhibitors” (Nimbus Lakshmi, Inc., priority 2018, dated 2022):

How the values were obtained:
[1] = target: human TYK2 (JH2domain-pseudokinase) (Homo sapiens (Human), UniProt P29597); test: TYK2 JH2 Domain Binding Assay (KINOMEscan); conditions: 11-point 3-fold dilution, top concentration 30,000 nM, duplicate; read-out: hTYK2_JH2_Binding (Kd; nM)
Method: Binding constants for compounds of the present invention against the JH2 domain were determined by the following protocol for a KINOMEscan® assay (DiscoveRx). A fusion protein of a partial length construct of human TYK2 (JH2domain-pseudokinase) (amino acids G556 to D888 based on reference sequence NP_003322.3) and the DNA binding domain of NFkB was expressed in transiently transfected HEK293 cells. From these HEK 293 cells, extracts were prepared in M-PER extraction buffer (Pierce) in the presence of Protease Inhibitor Cocktail Complete (Roche) and Phosphatase Inhibitor Cocktail Set II (Merck) per manufacturers' instructions. The TYK2(JH2domain-pseudokinase) fusion protein was labeled with a chimeric double-stranded DNA tag containing the NFkB binding site (5′-[…]-3′) fused to an amplicon for qPCR readout, which was added directly to the expression extract (the final concentration of DNA-tag in the binding reaction is 0.1 nM).
The liganded beads were blocked with excess biotin and washed with blocking buffer (SeaBlock (Pierce), 1% BSA, 0.05% Tween 20, 1 mM DTT) to remove unbound ligand and to reduce nonspecific binding.
Extracts were loaded with DNA-tag and diluted into the binding reaction in a two step process. First extracts were diluted 1:100 in 1× binding buffer (PBS/0.05% Tween 20/10 mM DTT/0.1% BSA/2 μg/ml sonicated salmon sperm DNA) containing 10 nM DNA-tag. This dilution was allowed to equilibrate at room temperature for 15 minutes and then subsequently diluted 1:100 in 1× binding buffer. […] Kds were determined using an 11-point 3-fold compound dilution series with three DMSO control points. […] The compounds were then diluted directly into the assays such that the final concentration of DMSO was 0.9%. All reactions performed in polypropylene 384-well plates. Each was a final volume of 0.02 mL. Assays were incubated with shaking for 1 hour at room temperature. Then the beads were pelleted and washed with wash buffer (lx PBS, 0.05% Tween 20) to remove displaced kinase and test compound. […] The qPCR protocol consisted of a 10 minute hot start at 95° C., followed by 35 cycles of 95° C. for 15 seconds, 60° C. for 1 minute.
Kds were determined using an 11-point 3-fold compound dilution series with three DMSO control points. […] The compounds were then diluted directly into the assays such that the final concentration of DMSO was 0.9%. The Kds were determined using a compound top concentration of 30,000 nM. Kd measurements were performed in duplicate.
Binding constants (Kds) were calculated with a standard dose-response curve using the Hill equation: […]
The Hill Slope was set to −1.

[2] = tested on: IL-12 induced STAT4 phosphorlyation mediated by TYK2/JAK2; test: IL-12 Induced pSTAT4 in Human PBMC; format: cell-based; conditions: 1.7 ng/mL IL-12 for 30 minutes
Summary of the method: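 pSTAT4 and total STAT4 quantified by MSD in lysates of cryopreserved human PBMC after 30-minute stimulation with 1.7 ng/mL IL-12 (final). Compound was added 1 hr beforehand at 37° C, 0.1% DMSO final.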

Sequence of human TYK2 (JH2domain-pseudokinase) (P29597 556-888): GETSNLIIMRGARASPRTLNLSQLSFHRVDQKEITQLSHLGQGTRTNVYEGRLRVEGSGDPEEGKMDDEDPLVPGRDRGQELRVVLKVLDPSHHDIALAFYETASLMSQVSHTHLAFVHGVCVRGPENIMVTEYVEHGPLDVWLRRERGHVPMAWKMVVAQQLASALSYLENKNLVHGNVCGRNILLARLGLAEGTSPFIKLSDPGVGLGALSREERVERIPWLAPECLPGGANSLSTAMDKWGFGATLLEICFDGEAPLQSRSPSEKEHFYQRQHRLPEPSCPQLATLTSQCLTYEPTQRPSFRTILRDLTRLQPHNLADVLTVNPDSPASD

Compound	Kd [1]	IC50 [2]	also measured
O=C(NC1CC1)c1cnn2c3c(c(Nc4cccn(C5CCOCC5)c4=O)nc12)OCCN3 [Compound I-748]	< 0.2 nM	–	–
CNc1cc(Nc2cccn([C@@H]3C[C@H]3F)c2=O)nc2c(C(=O)N[C@H]3CC[C@@H]3OC)cnn12 [Compound I-52, 5-((1-((1R,2R)-2-Fluorocyclopropyl)-2-oxo-1,2-dihydropyridin-3-yl)amino)-N-((1S,2S)-2-methoxycyclobutyl)-7-(methylamino)pyrazolo[1,5-a]pyrimidine-3-carboxamide]	0.2 to 1 nM	–	–
CNc1cc(Nc2cccn(-c3coc(C)n3)c2=O)nc2c(C(=O)NC3CC3)cnn12 [Compound I-121]	> 10 nM	–	–
CNc1cc(Nc2cccn([C@H]3CC[C@H]3O)c2=O)nc2c(C(=O)N[C@H]3CC[C@H](OC)C3)cnn12 [Compound I-86, 5-((1-((1S,2R)-2-Hydroxycyclobutyl)-2-oxo-1,2-dihydropyridin-3-yl)amino)-N-((1S,3S)-3-methoxycyclopentyl)-7-(methylamino)pyrazolo[1,5-a]pyrimidine-3-carboxamide]	1 to 10 nM	–	–
CNc1cc(Nc2cccn(C3CCOCC3)c2=O)nc2c(C(=O)N[C@H]3C[C@@H]3OC)cnn12 [Compound I-28, N-((1S,2S)-2-Methoxycyclopropyl)-7-(methylamino)-5-((2-oxo-1-(tetrahydro-2H-pyran-4-yl)-1,2-dihydropyridin-3-yl)amino)pyrazol[1,5-a]pyrimidine-3-carboxamide]	< 0.2 nM	–	–
CNc1cc(Nc2cccn([C@@H]3CCC[C@@H]3O)c2=O)nc2c(C(=O)N[C@H]3CC[C@H](OC)C3)cnn12 [Compound I-79, 5-((1-((1R,2S)-2-Hydroxycyclopentyl)-2-oxo-1,2-dihydropyridin-3-yl)amino)-N-((1S,3S)-3-methoxycyclopentyl)-7-(methylamino)pyrazolo[1,5-a]pyrimidine-3-carboxamide]	0.2 to 1 nM	–	–
CNc1cc(Nc2cccn([C@H]3[C@@H]4COC[C@@H]43)c2=O)nc2c(C(=O)N[C@@H]3CCC3(F)F)cnn12 [Compound I-308]	< 0.2 nM	–	–
CNc1cc(-c2cn([C@H]3C[C@@H](COC)C3)c3ncccc23)nc2c(C(=O)N[C@@H]3CC[C@H]3OC)cnn12 [Compound I-934]	< 0.2 nM	–	–
CNc1cc(Nc2ccc(F)n(-c3ccccn3)c2=O)nc2c(C(=O)NC3CC3)cnn12 [Compound I-473]	> 10 nM	–	–
CNc1cc(Nc2cccn([C@H]3C[C@@H](OC)C3)c2=O)nc2c(C(=O)N[C@@H]3C[C@@H]3F)cnn12 [Compound I-9, N-((1R,2S)-2-Fluorocyclopropyl)-5-((1-((1s,3S)-3-methoxycyclobutyl)-2-oxo-1,2-dihydropyridin-3-yl)amino)-7-(methylamino)pyrazolo[1,5-a]pyrimidine-3-carboxamide]	< 0.2 nM	–	–
CNc1cc(Nc2cccn([C@H]3CCC[C@H]3O)c2=O)nc2c(C(=O)N[C@H]3CC[C@H](OC)C3)cnn12 [Compound I-88, 5-((1-((1S,2R)-2-Hydroxycyclopentyl)-2-oxo-1,2-dihydropyridin-3-yl)amino)-N-((1S,3S)-3-methoxycyclopentyl)-7-(methylamino)pyrazolo[1,5-a]pyrimidine-3-carboxamide]	> 10 nM	–	–
CNc1cc(-c2cnc3n(CC(=O)N4CC5(COC5)C4)cccc2-3)nc2c(C(=O)NC3CC[C@@H]3OC)cnn12 (mixture of isomers) [Compound I-970]	< 0.2 nM	–	–
CNc1cc(Nc2cccn(-c3ncco3)c2=O)nc2c(C(=O)N[C@H]3CC[C@H](OC)C3)cnn12 [Compound I-84, N-((1S,3S)-3-Methoxycyclopentyl)-7-(methylamino)-5-((1-(oxazol-2-yl)-2-oxo-1,2-dihydropyridin-3-yl)amino)pyrazolo[1,5-a]pyrimidine-3-carboxamide]	0.2 to 1 nM	–	–
CNc1cc(Nc2cccn(C3COC3)c2=O)nc2c(C(=O)N[C@H]3CC[C@H]3F)cnn12 [Compound I-161]	< 0.2 nM	–	–
CNc1cc(-c2cn([C@H]3CCCOC3)c3ncccc23)nc2c(C(=O)N[C@H]3CC[C@H]3O)cnn12 [Compound I-15, N-((1S,2R)-2-Hydroxycyclobutyl)-7-(methylamino)-5-(1-((S)-tetrahydro-2H-pyran-3-yl)-1H-pyrrolo[2,3-b]pyridin-3-yl)pyrazolo[1,5-a]pyrimidine-3-carboxamide]	0.2 to 1 nM	–	–
CNc1cc(Nc2cccn([C@@H]3CC[C@@H]3O)c2=O)nc2c(C(=O)N[C@@H]3CCC[C@@H](OC)C3)cnn12 [Compound I-99, 5-((1-((1R,2S)-2-Hydroxycyclobutyl)-2-oxo-1,2-dihydropyridin-3-yl)amino)-N-((1R,3R)-3-methoxycyclohexyl)-7-(methylamino)pyrazolo[1,5-a]pyrimidine-3-carboxamide]	0.2 to 1 nM	–	–
CNc1cc(Nc2cccn([C@H]3CC[C@@H]3OC)c2=O)nc2c(C(=O)NC3CC[C@H]3O)cnn12 (some centres unmarked) [Compound I-239]	–	< 0.1 µM	–
CNc1cc(-c2cn([C@@H]3COC[C@H]3OC)c3ccccc23)nc2c(C(=O)NC3CC[C@@H]3OC)cnn12 (some centres unmarked) [Compound I-744]	–	< 0.1 µM	–

Compound	Kd [1]	IC50 [2]	also measured
CNc1cc(-c2cn([C@@H]3CCOC[C@H]3F)c3ncccc23)nc2c(C(=O)N[C@H]3CC[C@H]3O)cnn12 [Compound I-918]	–	< 0.1 µM	–
CNc1cc(-c2cnc3n([C@@H]4CCOC[C@H]4O)cccc2-3)nc2c(C(=O)N[C@H]3CC[C@@H]3F)cnn12 [Compound I-848]	–	< 0.1 µM	–
CNc1cc(-c2cn([C@H]3[C@@H]4COC[C@@H]43)c3ncccc23)nc2c(C(=O)NC3CC[C@@H]3OC)cnn12 (stereo partly drawn) [Compound I-792, 5-(1-((1R,5S,6r)-3-oxabicyclo[3.1.0]hexan-6-yl)-1H-pyrrolo[2,3-b]pyridin-3-yl)-N-((trans-1,2)-2-methoxycyclobutyl)-7-(methylamino)pyrazolo[1,5-a]pyrimidine-3-carboxamide]	–	–	IC50 ([2]; 0.5 h): < 0.1 µM
CNc1cc(-c2cn([C@@H]3CCOC[C@H]3F)c3ncccc23)nc2c(C(=O)NC3CC[C@H]3O)cnn12 (stereo partly drawn) [Compound I-592, 5-(1-((3S,4R)-3-Fluorotetrahydro-2H-pyran-4-yl)-1H-pyrrolo[2,3-b]pyridin-3-yl)-N-((cis-1,2)-2-hydroxycyclobutyl)-7-(methylamino)pyrazolo[1,5-a]pyrimidine-3-carboxamide]	–	–	IC50 ([2]; 0.5 h): < 0.1 µM
CNc1cc(Nc2cccn([C@H]3C[C@H](F)C3)c2=O)nc2c(C(=O)N[C@H]3CC[C@H](O)C3)cnn12 [Compound I-436]	–	< 0.1 µM	–
CNc1cc(Nc2cccn([C@H]3CCCC[C@H]3O)c2=O)nc2c(C(=O)NC3CC[C@@H]3F)cnn12 (some centres unmarked) [Compound I-212]	–	0.1 to 0.5 µM	–
CNc1cc(-c2cn(CC(=O)N3CCCC3)c3ncccc23)nc2c(C(=O)NC3CC[C@@H]3OC)cnn12 (some centres unmarked) [Compound I-931]	–	0.1 to 0.5 µM	–
CNc1cc(-c2cnc3n([C@H]4COC[C@@H]4OC)cccc2-3)nc2c(C(=O)N[C@H]3CC[C@H]3F)cnn12 [Compound I-839]	–	< 0.1 µM	–
CNc1cc(-c2cn([C@H]3COC[C@H]3F)c3ncccc23)nc2c(C(=O)N[C@H]3COC[C@H]3O)cnn12 [Compound I-726]	–	< 0.1 µM	–
CNc1cc(-c2cnc3n([C@H]4COC[C@@H]4OC)cccc2-3)nc2c(C(=O)NC3CC[C@H]3F)cnn12 (some centres unmarked) [Compound I-838]	–	< 0.1 µM	–
CNc1cc(-c2cn([C@@H]3CC(=O)N(C4CCOCC4)C3)c3ncccc23)nc2c(C(=O)N[C@H]3CC[C@@H]3OC)cnn12 [Compound I-1028]	–	0.1 to 0.5 µM	–
CNc1cc(-c2cnc3n([C@H]4COC[C@@H]4O)cccc2-3)nc2c(C(=O)N[C@H]3CC[C@@H]3F)cnn12 [Compound I-828]	–	< 0.1 µM	–
CNc1cc(-c2cn([C@H]3CCOC[C@H]3OC)c3ncccc23)nc2c(C(=O)NC3CC[C@@H]3F)cnn12 (some centres unmarked) [Compound I-546]	–	< 0.1 µM	–
CNc1cc(-c2cn(C3CN(C)C3)c3ncccc23)nc2c(C(=O)NC3CC[C@@H]3F)cnn12 (some centres unmarked) [Compound I-513]	–	< 0.1 µM	–
CNc1cc(Nc2cccn([C@H]3C[C@H](F)C3)c2=O)nc2c(C(=O)N[C@@H]3CCC3(F)F)cnn12 [Compound I-285]	–	< 0.1 µM	–
CNc1cc(-c2cn([C@@H]3COC[C@H]3OC)c3ncccc23)nc2c(C(=O)NC3CC[C@H]3F)cnn12 (some centres unmarked) [Compound I-531]	–	< 0.1 µM	–
CNc1cc(-c2cn(C3COC3)c3ncccc23)nc2c(C(=O)N[C@H]3CC[C@H]3O)cnn12 [Compound I-555]	–	< 0.1 µM	–
